We go through 15 compounds from paper PMC6753678, “Fueling Open Innovation for Malaria Transmission-Blocking Drugs: Hundreds of Molecules Targeting Early Parasite Mosquito Stages” (Frontiers in Microbiology, 2019).

Read-outs that look alike come from different tables or passages of the source.

The subject of data set [1] is 3D7-strain P. falciparum asexual parasites. Briefly: P. falciparum asexual growth inhibition assay (Pf GIA). It counts as cell-based, Plasmodium falciparum. The settings on record: dose response confirmation; read-out: Pf asexual growth inhibition assays IC50. The gist of the method:
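LDH readout: absorbance at 650 nm after 10 min at room temperature with lactate/APAD/NBT/diaphorase mix on thawed plates. Cultures (0.25% parasitemia, 2% hematocrit) were treated 72 h at 37°C in low-oxygen gas. Inhibition was normalised to 50 μM chloroquine and DMSO; n=3 biological replicates.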

A further data set relates to HepG2 cells. Briefly: HepG2 cytotoxicity assay. The settings on record: for IC50: read-out: HepG2 cytotoxicity assay IC50, dose response confirmation; for Pb ODA (this manuscript) HepG2 cytoxicity: HepG2 cytotoxicity listed with the Pb ODA data set (this manuscript). Put shortly: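 Percent inhibition derived from fluorescent viability readout, normalised to DMSO (negative) and 50 μM doxorubicin (positive). Compound incubation lasted 48 h at 37°C, 5% CO2, with 2,500 HepG2 cells/well in MEM plus 10% FBS and 1% NEAA.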

Data set [2] concerns P. berghei ookinete development. As to conditions: for % inhibition, Replicate A / % inhibition, Replicate B: primary screen at 1 μM.
[3] abbreviates: HepG2 values of the three screens unified.
[4] abbreviates: read-out: Pb ODA IC50, this manuscript.
The mark [5] stands for this setting: read-out: Pb Ookinete development assay IC50, dose response confirmation.
Where [6] appears, read: read-out: Pb ODA (this manuscript) IC50, P. berghei ookinete development assay, this manuscript.
Where [7] appears, read: unified HepG2 value across the three screens.

As for `CCN1CCN(CCNc2c3ccccc3nc3ccccc23)CC1.Cl` [TCMDC-137545], the IC50 (usually the concentration at which inhibition is half-maximal) in data set [1] was 606 nM; in the data set with HepG2 cells, 11800 nM; in data set [2] (setting [4]), 1780 nM; in data set [2] (setting [5]), 1780 nM. The “HepG2 cytoxicity (Pb ODA, this manuscript)” value in the data set with HepG2 cells turned out to be 11.75 µM. The Unified cytotox with HepG2 cells (setting [3]) is listed as 11.75 µM. For the same compound, the “Is compound selective in assay? Pb ODA active?” value (“Is compound selective” below) in data set [2] (1: YES, 0: NO) is reported as 0 (0: NO). Moreover, the “% inhibition, Replicate A” value in data set [2] came out at 68.50%. For the same compound, the “% inhibition, Replicate B” value in data set [2] amounted to 47.85%.
As for `COc1ccc2nccc(NC(=O)C3(O)CCC(NCc4ccc5c(c4)NCCS5)CC3)c2n1.Cl` (stereo not drawn) [TCMDC-141406], the 50% inhibitory concentration (IC50) in data set [1] came out at 1040 nM. Moreover, in the data set with HepG2 cells, the “Pb ODA (this manuscript) HepG2 cytoxicity” value is listed as 24.27 µM and the IC50 was found to be 24300 nM. In data set [2], the “Is compound selective” value was 1 (key: 1: YES; 0: NO); the “% inhibition, Replicate A” value is listed as 91.89%; the “% inhibition, Replicate B” value came to 114.20%. Further, the IC50 in data set [2] (setting [6]) worked out at 350 nM. In addition, the half-inhibitory concentration (IC50) in data set [2] (setting [5]) came out at 347 nM.
`CN1CCN(CC(=O)Nc2ccc(-c3ccc(-c4nc5ccccc5[nH]4)cc3)cc2)CC1` [TCMDC-136979]: the half-maximal inhibitory concentration (IC50) in data set [1] stood at 1110 nM; in the data set on HepG2 cells, 21600 nM; in data set [2] (setting [4]) it was 4190 nM; in data set [2] (setting [5]), 4190 nM. In the data set on HepG2 cells (setting [7]), the “Unified cytotox” value amounted to 21.63 µM. The “Is compound selective” value in data set [2] (1: YES, 0: NO) is 0 (0: NO). In addition, the “% inhibition, Replicate A” value in data set [2] turned out to be 58.34%. In addition, in data set [2], the “% inhibition, Replicate B” value is 20.87%.
`CSc1ccc(C=CC(=O)NC(=O)c2ccccc2O)cc1` [TCMDC-123758]: the half-inhibitory concentration (IC50) amounted to 179 nM in data set [1], 73300 nM in the data set with HepG2 cells, 530 nM in data set [2] (setting [4]) and 526 nM in data set [2] (setting [5]). The “Unified cytotox” value with HepG2 cells (setting [7]) is on record as 73.28 µM. Further, the “Is compound selective” value in data set [2] (1: YES, 0: NO) is 1 (1: YES). The “% inhibition, Replicate A” value in data set [2] stood at 53.84%. Also, the “% inhibition, Replicate B” value in data set [2] amounted to 38.37%.
For `Nc1nc(N)c2c(ccc3c2ccn3Cc2cccc3ccccc23)n1` [TCMDC-137996], the IC50 stood at 151 nM in data set [1], 1.7 nM with HepG2 cells, 5760 nM in data set [2] (setting [4]) and 5760 nM in data set [2] (setting [5]). Moreover, in the data set on HepG2 cells, the “HepG2 cytoxicity (Pb ODA, this manuscript)” value was determined as 0.0017 µM. The compound further came in with a Unified cytotox in the data set on HepG2 cells (setting [3]) of 0.0017 µM. Also, in data set [2] (1: YES, 0: NO), the “Is compound selective” value is 0 (0: NO). Also, the “% inhibition, Replicate A” value in data set [2] worked out at 55.22%. Besides, in data set [2], the “% inhibition, Replicate B” value stood at 70.48%.
For the compound `CC(Cl)=CCc1c(C)[nH]c2c(ccc3ccccc32)c1=O` [TCMDC-124085], the IC50 in data set [1] was determined as 276 nM; in the data set with HepG2 cells, 100000 nM; in data set [2] (setting [6]) it was 330 nM; in data set [2] (setting [5]) it was 328 nM. In addition, the “Pb ODA (this manuscript) HepG2 cytoxicity” value with HepG2 cells came out at 100.00 µM. Besides, the “Is compound selective” value in data set [2] was 1 (key: 1: YES; 0: NO). For the same compound, the “% inhibition, Replicate A” value in data set [2] was 85.49%. Also, the “% inhibition, Replicate B” value in data set [2] is 96.24%.
Turning to `CC(=O)Nc1cccc(Nc2c3ccccc3nc3ccccc23)c1` [TCMDC-123741], the IC50 in data set [1] came out at 1470 nM; with HepG2 cells, 12300 nM; in data set [2] (setting [4]), 690 nM; in data set [2] (setting [5]), 686 nM. Besides, in the data set with HepG2 cells (setting [7]), the “Unified cytotox” value stood at 12.30 µM. In addition, the “Is compound selective” value in data set [2] (1: YES, 0: NO) is 1 (1: YES). Moreover, the “% inhibition, Replicate A” value in data set [2] turned out to be 54.87%. For the same compound, in data set [2], the “% inhibition, Replicate B” value stood at 64.71%.
`O=C(c1cccs1)N1CCN(c2ccc([N+](=O)[O-])c(NC3CC3)c2)CC1` [TCMDC-123877]: the IC50 turned out to be 2660 nM in data set [1], 100000 nM in the data set with HepG2 cells, 1700 nM in data set [2] (setting [4]) and 1700 nM in data set [2] (setting [5]). The “Unified cytotox” value with HepG2 cells (setting [7]) is listed as 100.00 µM. The “Is compound selective” value in data set [2] (1: YES, 0: NO) is on record as 1 (1: YES). In data set [2], the “% inhibition, Replicate A” value is given as 53.49%. For the same compound, in data set [2], the “% inhibition, Replicate B” value is recorded as 54.36%.
As to `COc1ccc(C=NNc2nc(O)cc(-c3ccccc3)n2)cc1OC` [TCMDC-124217], the IC50 in data set [1] was 630 nM; in the data set with HepG2 cells, 58200 nM; in data set [2] (setting [4]) it was 500 nM; in data set [2] (setting [5]), 497 nM. Moreover, the “Unified cytotox” value with HepG2 cells (setting [7]) amounted to 58.21 µM. Moreover, in data set [2] (1: YES, 0: NO), the “Is compound selective” value is on record as 1 (1: YES). The “% inhibition, Replicate A” value in data set [2] came out at 58.99%. Besides, the “% inhibition, Replicate B” value in data set [2] came to 66.09%.
Regarding `COc1ccc(Nc2ncc(Cl)c(Nc3cccnc3C(N)=O)n2)cc1N1CCN(C)CC1.Cl` [TCMDC-134163], the 50% inhibitory concentration (IC50) in data set [1] was determined as 169 nM. In the data set on HepG2 cells, the “Pb ODA (this manuscript) HepG2 cytoxicity” value was 11.22 µM and the 50% inhibitory concentration (IC50) was 11200 nM. Moreover, in data set [2], the “Is compound selective” value is listed as 1 (key: 1: YES; 0: NO); the “% inhibition, Replicate A” value turned out to be 91.07%; the “% inhibition, Replicate B” value came out at 92.91%. Also, the half-maximal inhibitory concentration (IC50) in data set [2] (setting [5]) stood at 380 nM.
In the case of `COc1ccc2ncc(F)c(NC(=O)C3CCC(NCc4cc5c(F)cccc5[nH]4)CC3)c2n1.Cl` (stereo not drawn) [TCMDC-136354], the IC50 in data set [1] turned out to be 475 nM. Further, in the data set with HepG2 cells, the “Pb ODA (this manuscript) HepG2 cytoxicity” value was determined as 3.63 µM and the IC50 worked out at 3630 nM. In addition, in data set [2], the “Is compound selective” value is listed as 1 (key: 1: YES; 0: NO); the “% inhibition, Replicate A” value worked out at 86.49%; the “% inhibition, Replicate B” value is reported as 82.69%. In data set [2] (setting [6]), the IC50 came out at 250 nM. For the same compound, the half-inhibitory concentration (IC50) in data set [2] (setting [5]) was 252 nM.
Take `COc1ccc2c(=O)c3ccc(OC)cc3[nH]c2c1` [TCMDC-132054]: the IC50 in data set [1] was determined as 2420 nM. For the same compound, in the data set on HepG2 cells, the “Pb ODA (this manuscript) HepG2 cytoxicity” value stood at 100.00 µM and the 50% inhibitory concentration (IC50) worked out at 100000 nM. For the same compound, in data set [2], the “Is compound selective” value is 1 (key: 1: YES; 0: NO); the “% inhibition, Replicate A” value was determined as 107.15%; the “% inhibition, Replicate B” value was found to be 103.78%. Moreover, the half-inhibitory concentration (IC50) in data set [2] (setting [6]) came to 580 nM. The IC50 in data set [2] (setting [5]) was 575 nM.
Turning to `COc1coc(C(=O)NC2CCN(CC3(c4ccc(Cl)cc4)CCC3)CC2)c1OC` [TCMDC-124835], the half-inhibitory concentration (IC50) in data set [1] was found to be 107 nM; with HepG2 cells, 52500 nM; in data set [2] (setting [4]) it was 900 nM; in data set [2] (setting [5]), 899 nM. In the data set on HepG2 cells (setting [7]), the “Unified cytotox” value amounted to 52.48 µM. The “Is compound selective” value in data set [2] (1: YES, 0: NO) was 1 (1: YES). Further, the “% inhibition, Replicate A” value in data set [2] is 73.94%. Also, the “% inhibition, Replicate B” value in data set [2] stood at 84.15%.
As to `COc1ccc2ncc(Cl)c(NCC3(O)CCC(NCc4ccc5c(n4)NC(=O)CS5)CC3)c2n1.Cl` (stereo not drawn) [TCMDC-134671], the IC50 was found to be 1210 nM in data set [1], 12600 nM in the data set with HepG2 cells, 810 nM in data set [2] (setting [4]) and 813 nM in data set [2] (setting [5]). Moreover, the “HepG2 cytoxicity (Pb ODA, this manuscript)” value in the data set with HepG2 cells worked out at 12.59 µM. Besides, in the data set with HepG2 cells (setting [3]), the Unified cytotox is given as 12.59 µM. Besides, the “Is compound selective” value in data set [2] (1: YES, 0: NO) is 1 (1: YES). The “% inhibition, Replicate A” value in data set [2] is reported as 92.69%. The “% inhibition, Replicate B” value in data set [2] is given as 100.49%.
With `Cc1[nH]c(C)c(-c2ccc(OCc3cc(C(F)(F)F)cc(C(F)(F)F)c3)nc2)c(=O)c1Br` [TCMDC-135815], the IC50 worked out at 279 nM in data set [1], 710 nM in the data set with HepG2 cells, 120 nM in data set [2] (setting [4]) and 122 nM in data set [2] (setting [5]). In the data set on HepG2 cells, the “HepG2 cytoxicity (Pb ODA, this manuscript)” value was 0.71 µM. Moreover, the Unified cytotox in the data set on HepG2 cells (setting [3]) turned out to be 0.71 µM. For the same compound, the “Is compound selective” value in data set [2] (1: YES, 0: NO) is given as 0 (0: NO). In addition, the “% inhibition, Replicate A” value in data set [2] is given as 74.97%. Besides, the “% inhibition, Replicate B” value in data set [2] turned out to be 105.72%.
